From patent US20250101338A1, “BIOMASS DERIVED SURFACE-ACTIVE COMPOSITIONS AND PRODUCTS” (Cambridge Glycoscience Ltd, priority 2021, published 2025)

Key:
[1] = Dynamic foam tests (Example 69); type: physicochemical; conditions: 5 mL of 0.5 wt % aqueous solution, 40 cm^3 air bubbled at 17 cm^3/min
Method: The intensity and approximate decay-rate for the foaming behavior of the surface-active compositions in dilute aqueous solution was determined by dosing 5 mL of 0.5 wt % aqueous solution of surface-active composition to a vertically-aligned 50 m plastic serological pipette (“Stripette”). Air (40 cm^3) was bubbled through the surface-active composition solution at a rate of 17 cm^3/min via a syringe pump and the foam height upon complete addition of air recorded. The foam height was also recorded again 5 min after complete addition of air, 10 min after complete addition of air, 15 m after complete addition of air, 30 min after complete addition of air, 1 hour after complete addition of air and finally 2 hours after complete addition of air.

[2] = Flash foam generation test (Example 70); type: physicochemical; conditions: 20 mg in 4 mL deionized water (10 wt % [sic]), 2 mL shaken 30 s in 15 mL tube, duplicate average
Method: 20 mg of each surface-active composition for testing was dissolved in deionized water (4 mL) to give a 10 wt % solution, 2 mL was added to a 15 mL FALCON tube. Each falcon tube was secured in a holder before being vigorously shook for 30 seconds. The initial foam height and structure was noted. The foam height was then noted at 5 min, 10 min, 15 min, 30 min, 45 min, 1 hr and 2 hr after the initial measurement. The experiment was repeated in duplicate. Averaged results are depicted in table 5 and FIG. 11.

[3] = Critical micellular concentration determination (Example 78); type: physicochemical; conditions: deionized water
Method: Stock solutions were prepared of known weight concentration (range spanning 0.005 wt %-5.000 wt %) of inventive surface-active compositions (by solution of the appropriate weight of example composition in deionized water). For reference, the surface tension of deionized water in the absence of a surface-active composition is 73 mN. […] The surface tensions of the solutions at the concentration of the CMC were also noted. Results are shown in table 10 and graphical results are depicted in FIG. 22.

[4] = Water in oil emulsion stability test (Example 65); type: physicochemical; conditions: 0.5 mL water with 2 wt % substance + 1.5 mL sunflower oil, vortex 30 s, visual inspection
Method: 0.5 mL deionized water containing 2 wt % of the stated inventive or comparative compound was added to 1.5 mL commercial, food-grade sunflower oil, in a sample vial. The vials were each agitated with a IKA Vortex mixture for 30 seconds. The vials were left to stand and inspected visually for emulsion quality after 5 minutes, 1 hour, 4 hours and finally 24 h (FIG. 14 and FIG. 15). […] The results also show an unexpected increase in emulsifying performance for the inventive compositions comprising oligosaccharide mixture-derived surface-active agents (such as example 4-6 compositions) compared with those derived from a single monomeric sugar (xylose) alone (such as example 12 and 13 compositions).

[5] = system: Zein; experiment: Zein solubilization test, irritation potential (Example 68); conditions: 25 mg zein in 1 mL of 1 wt % active surfactant solution, 30 min, BCA assay, triplicate
Method: Zein is a water-insoluble corn protein, structurally similar to keratin. The ability of a surfactant to solubilize zein is related to irritation potential. The more zein solubilized, the more irritating the product is deemed to be, according to this test. […] The solutions were centrifuged, and the protein concentration in the supernatant determined by BCA assay. Each surfactant was tested in triplicate. Protein content was determined from a bovine serum albumin (BSA) standard curve.

[6] = Lipophilic substances solubilization test, lemongrass oil (Example 71); type: physicochemical; conditions: 2 mL of 5 wt % aqueous solution, stepwise addition of 2.5 μL, duplicate
Method: (§1) After each addition, the sample was agitated with a vortex mixture for 60 s and left to stand for 5 min. If no heterogenous phase was observed visually, the oil was said to be fully soluble. If a heterogenous, immiscible biphasic or emulsion was visible, then the saturation limit for that surface-active component was said to have been exceeded. Each surface-active composition was tested in duplicate.

[7] = Lipophilic substances solubilization test, preservative P12 (Example 72); type: physicochemical; conditions: 2 mL of 5 wt % aqueous solution, stepwise addition of 10 μL, duplicate
Method: as §1, with “heterogenous phase” for “heterogenous, immiscible biphasic”

[8] = Relative viscosity, gravity flow time (Example 74); type: physicochemical; conditions: 10 mL of 10 wt % sodium dodecyl sulfate + 0.3 g NaCl + 0.655 mL of 30 wt % test solution, 27° C., triplicate
Method: The time taken for precisely 3 mL of testing mixture to pass out of the […] by gravity was recorded. The test was repeated in triplicate. Averaged results are depicted in FIG. 20 and table 9. It was unexpected that example 11 composition recorded such high viscosity over example 14 composition, which differs by a slightly smaller alkyl chain (octyl instead of decyl).

[9] = Aqueous solubility noted at preparation; type: physicochemical; conditions: water, room temperature
Method: Solid N-decyl xylosylamine (7.6 g) was suspended in 2-propanol (60 mL) and triethylamine (2 equiv.) then acetic anhydride (1.6 equiv.) was added slowly. Stirring continued at ambient temperature for 10 h. Water (50 mL) was added, and the mixture stirred for 5 min. Dichloromethane (50 mL) was added and the phases separated. The aqueous phase was extracted with additional DCM. The combined organic phase washed with saturated aqueous NH4Cl solution, then the aqueous phase extracted with additional DCM. The combined organic phases were dried over anhydrous magnesium sulfate, filtered, then concentrated under reduced pressure to give a yellow oil. The oil was purified by FCC eluting with MeOH (2-15%) in DCM (120 g normal phase silica cartridge with wet loading). Fractions containing the product were combined and evaporated to dryness to give the desired product (4.1 g, 49%) as a yellow gum. LC-MS (Method A), Rt=1.69 min, [M+H]+=332.2. The gum product can be dissolved in water to form solutions of 50 wt % or greater.
The process was carried out in essentially the same manner as in Example 11 a) step (ii) but using the solid product of Example 11 reaction c) step (i) and the crude product was instead purified by FCC eluting with MeOH (2-13%) in DCM. There were obtained 1.4 g of cream gum product. LC-MS (Method A), Rt=1.87 min, [M+H]^+=360.5.

| Compound | Volume of foam after given time ([2]; 0 min) [cm^3] | Volume of foam after given time ([2]; 5 min) [cm^3] | Volume of foam after given time ([2]; 15 min) [cm^3] | Volume of foam after given time ([2]; 30 min) [cm^3] | Volume of foam after given time ([2]; 1 h) [cm^3] | Volume of foam after given time ([2]; 2 h) [cm^3] | Time inspected by which the emulsion first appeared dispersed [4] [h] | Maximum volume of lemongrass oil solubilized [6] [µL] | Average time (for 3 mL to pass out of the stripette by gravity) [8] [s] | also measured |
| --- | --- | --- | --- | --- | --- | --- | --- | --- | --- | --- |
| CCCCCCCCCCCCN(C(C)=O)C1O[C@H](CO)[C@@H](O[C@@H]2O[C@H](CO)[C@@H](O)[C@H](O)[C@H]2O)[C@H](O)[C@H]1O (stereo partly shown) [Example 23 composition, N-dodecyl N-acetyl cellobiosylamine] | 3.5 | 3.5 | 3.5 | 3.0 | 2.8 | 2.5 |  |  |  | Volume of foam after given time ([1]; 0 min): 38.5 cm^3; Volume of foam after given time ([1]; 5 min): 4.0 cm^3; Volume of foam after given time ([1]; 15 min): 4.0 cm^3; Volume of foam after given time ([1]; 30 min): 4.0 cm^3; Volume of foam after given time ([1]; 1 h): 3.0 cm^3; Volume of foam after given time ([1]; 2 h): 3.0 cm^3; Solution Surface tension at CMC [3]: 45 mN; CMC ([3]; from surface tension at 0.005-5.000 wt %): 0.03 wt % |
| CCCCCCCCCCCCCCN(C(C)=O)C1OC[C@@H](O)[C@H](O)[C@H]1O (stereo partly shown) [Example 12 composition, N-tetradecyl N-acetyl xylosylamine] |  |  |  |  |  |  | 1 |  |  |  |
| CCCCCCCCCCO[C@@H]1O[C@H](CO)[C@@H](O)[C@H](O)[C@H]1O [Decyl glucoside, reference compound] | 12.0 | 12.0 | 11.8 | 11.5 | 11.5 | 11.0 | 24 | 2.5 |  | Resulting zein concentration solubilized [5]: 1129 µg/mL; Maximum volume of preservative P12 solubilized [7]: 40 µL |
| O=C[C@H](O)[C@@H](O)[C@H](O)CO [Xylose, reference compound] |  |  |  |  |  |  | <0.083 |  |  |  |
| CCCCCCCCCCCCO[C@@H]1O[C@H](CO)[C@@H](O)[C@H](O)[C@H]1O [Dodecyl Glucoside, reference compound] |  |  |  |  |  |  | 12 |  | 4.0 | Volume of foam after given time ([1]; 0 min): 42.3 cm^3; Volume of foam after given time ([1]; 5 min): 42.3 cm^3; Volume of foam after given time ([1]; 15 min): 42.3 cm^3; Volume of foam after given time ([1]; 30 min): 42.3 cm^3; Volume of foam after given time ([1]; 1 h): 42.0 cm^3; Volume of foam after given time ([1]; 2 h): 42.0 cm^3 |
| CCCCCCCCN(C(C)=O)C1OC[C@@H](O)[C@H](O)[C@H]1O (stereo partly shown) [Example 14 composition, N-octyl N-acetyl xylosylamine] |  |  |  |  |  |  | 0.083 | 5.0 | 10.0 |  |
| Cocoamidopropyl betaine |  |  |  |  |  |  |  |  | 524.0 |  |
| CCCCCCCCCCCCOS(=O)(=O)[O-].[Na+] [Sodium dodecyl sulfate, reference compound] | 15.0 | 15.0 | 15.0 | 15.0 | 15.0 | 14.0 | 1 |  |  |  |
| Lauryl glucoside |  |  |  |  |  |  |  |  | 1.9 |  |
| CCCCCCCCCCCCN(C(C)=O)C1OC[C@@H](O)[C@H](O)[C@H]1O (stereo partly shown) [Example 13 composition, N-dodecyl N-acetyl xylosylamine] |  |  |  |  |  |  | 1 | 5.0 |  | Aqueous solubility (in words) [9]: only sparingly soluble |
